In ChEMBL document CHEMBL2074161, “Substrate upregulation of the human small intestinal peptide transporter, hPepT1” (J Physiol, 1998):
Peptide text beside a SMILES is read from it.

Target: T1, Solute carrier family 15 member 1 (Homo sapiens) (UniProt P46059)
T1 sequence (whole entry): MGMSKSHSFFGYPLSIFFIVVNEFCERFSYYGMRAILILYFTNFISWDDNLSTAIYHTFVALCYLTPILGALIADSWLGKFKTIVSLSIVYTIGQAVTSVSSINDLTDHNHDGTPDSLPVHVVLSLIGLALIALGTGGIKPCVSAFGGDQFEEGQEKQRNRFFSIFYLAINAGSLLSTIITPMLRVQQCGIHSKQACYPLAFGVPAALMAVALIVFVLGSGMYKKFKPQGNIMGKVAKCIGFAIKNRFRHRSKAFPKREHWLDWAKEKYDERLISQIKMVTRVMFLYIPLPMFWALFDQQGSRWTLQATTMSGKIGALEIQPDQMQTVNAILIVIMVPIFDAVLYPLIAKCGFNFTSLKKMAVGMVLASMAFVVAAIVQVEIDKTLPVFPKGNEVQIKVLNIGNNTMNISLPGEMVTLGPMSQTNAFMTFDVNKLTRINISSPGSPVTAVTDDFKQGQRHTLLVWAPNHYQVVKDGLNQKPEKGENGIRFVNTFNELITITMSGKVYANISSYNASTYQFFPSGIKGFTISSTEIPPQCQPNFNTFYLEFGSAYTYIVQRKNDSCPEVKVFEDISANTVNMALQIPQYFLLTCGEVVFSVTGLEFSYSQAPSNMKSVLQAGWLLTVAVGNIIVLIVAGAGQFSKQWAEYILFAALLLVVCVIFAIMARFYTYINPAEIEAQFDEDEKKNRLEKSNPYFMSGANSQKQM
Experiment: TP_TRANSPORTER: upregulation of mRNA and protein in Caco-2 cells
Assay type: functional, cell-based

SMILES: NCC(=O)N[C@@H](CCC(N)=O)C(=O)O (H-Gly-Gln-OH)
- Activity: inducer [+]
